Activity calls are given as the source filed them. The rule behind the calls is not given here.

The record followed here is ChEMBL document CHEMBL6109152, “Harnessing the SPOP E3 Ubiquitin Ligase via a Bridged Proteolysis Targeting Chimera (PROTAC) Strategy for Targeted Protein Degradation” (J Med Chem, 2025).

Experiment [1] has as its target T1, Speckle-type POZ protein-Bromodomain-containing protein 4 (Homo sapiens, UniProt O60885+O43791). The experiment is described as follows: PROTAC activity at SPOP/BRD4-S in human HT-29 cells assessed as induction of BRD4 short isoform degradation at 0.5 to 5 uM incubated for 24 hrs by Western blotting analysis. Format: cell-based. To be noted: dose 0.5-5 µM.
Experiment [2] concerns the target T2, Histone-lysine N-methyltransferase EHMT1 (Homo sapiens, UniProt Q9H9B1).
T2 sequence (Q9H9B1 whole entry): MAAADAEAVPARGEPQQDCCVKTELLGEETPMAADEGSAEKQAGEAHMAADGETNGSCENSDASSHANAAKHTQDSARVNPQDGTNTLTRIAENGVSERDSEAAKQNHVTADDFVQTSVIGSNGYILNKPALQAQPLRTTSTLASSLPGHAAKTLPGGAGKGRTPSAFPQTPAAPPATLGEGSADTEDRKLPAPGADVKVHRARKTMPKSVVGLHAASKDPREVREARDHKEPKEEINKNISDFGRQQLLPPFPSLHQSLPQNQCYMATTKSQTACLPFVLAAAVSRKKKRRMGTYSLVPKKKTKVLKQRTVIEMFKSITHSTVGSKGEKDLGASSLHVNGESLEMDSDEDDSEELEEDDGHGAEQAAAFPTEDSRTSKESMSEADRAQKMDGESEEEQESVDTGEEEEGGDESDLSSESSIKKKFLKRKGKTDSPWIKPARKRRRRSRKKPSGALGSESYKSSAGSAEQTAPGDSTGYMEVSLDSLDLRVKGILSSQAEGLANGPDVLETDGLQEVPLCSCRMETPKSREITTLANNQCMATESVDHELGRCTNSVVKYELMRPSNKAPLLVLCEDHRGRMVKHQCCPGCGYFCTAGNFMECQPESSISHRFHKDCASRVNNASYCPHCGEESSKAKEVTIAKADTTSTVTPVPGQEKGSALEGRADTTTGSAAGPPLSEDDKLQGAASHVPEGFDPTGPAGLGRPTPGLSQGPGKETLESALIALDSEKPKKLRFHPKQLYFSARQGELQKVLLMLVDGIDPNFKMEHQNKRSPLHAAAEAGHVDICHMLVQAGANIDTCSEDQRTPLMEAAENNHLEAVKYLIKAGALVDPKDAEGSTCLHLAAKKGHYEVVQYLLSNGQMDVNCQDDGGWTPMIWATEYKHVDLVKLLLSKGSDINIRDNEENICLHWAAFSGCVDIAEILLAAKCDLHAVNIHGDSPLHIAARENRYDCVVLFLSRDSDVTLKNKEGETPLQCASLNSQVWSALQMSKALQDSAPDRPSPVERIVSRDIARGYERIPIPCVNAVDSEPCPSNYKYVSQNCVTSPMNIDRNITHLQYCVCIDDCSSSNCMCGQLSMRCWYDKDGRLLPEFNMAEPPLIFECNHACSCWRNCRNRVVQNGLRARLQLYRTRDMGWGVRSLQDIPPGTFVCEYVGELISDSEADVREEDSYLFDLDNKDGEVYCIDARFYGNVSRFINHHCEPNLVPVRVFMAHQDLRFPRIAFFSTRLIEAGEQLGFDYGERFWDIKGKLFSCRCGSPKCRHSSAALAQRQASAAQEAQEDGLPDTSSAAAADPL
The experiment is described as follows: Binding affinity to recombinant GLP-SET domain (unknown origin) assessed as assessed as dissociation constant by ITC analysis.

Experiment [3] deals with T1, Speckle-type POZ protein-Bromodomain-containing protein 4. The experiment is described as follows: PROTAC activity at SPOP/BRD4-L in human HT-29 cells assessed as induction of BRD4 long isoform degradation at 10 uM incubated for 24 hrs by Western blotting analysis relative to control. Format: cell-based.
For experiment [4] the target is unchanged. The experiment is described as follows: PROTAC activity at SPOP/BRD4-L in human HT-29 cells assessed as induction of BRD4 long isoform degradation by measuring fold change at 1.25 uM incubated for 24 hrs by Western blotting analysis (reference value: 1.00). Format: cell-based.
Experiment [5] shares this target. The experiment is described as follows: PROTAC activity at SPOP/BRD4-S in human HT-29 cells assessed as induction of BRD4 short isoform degradation by measuring fold change at 1.25 uM incubated for 24 hrs by Western blotting analysis (reference value: 1.00). The class given is cell-based.
Experiment [6] has the same target. The experiment is described as follows: PROTAC activity at SPOP/BRD4-S in human HT-29 cells assessed as induction of BRD4 short isoform degradation by measuring fold change at 5 uM incubated for 24 hrs by Western blotting analysis (reference value: 1.00). The class given is cell-based.
Experiment [7] concerns the target T3, Speckle-type POZ protein-Bromodomain-containing protein 3 (Homo sapiens) (UniProt Q15059+O43791). The experiment is described as follows: PROTAC activity at SPOP/BRD3 in human HT-29 cells assessed as induction of BRD3 degradation by measuring fold change at 0.156 uM incubated for 24 hrs by Western blot analysis (reference value: 1.00). Format: cell-based.
Experiment [8] has as its target T3, Speckle-type POZ protein-Bromodomain-containing protein 3 (Homo sapiens). The experiment is described as follows: PROTAC activity at SPOP/BRD3 in human HT-29 cells assessed as induction of BRD3 degradation by measuring fold change at 5 uM incubated for 24 hrs by Western blot analysis (reference value: 1.00). The class given is cell-based.
The target of experiment [9] is T4, Speckle-type POZ protein-Bromodomain-containing protein 2 (Homo sapiens) (UniProt P25440+O43791). The experiment is described as follows: PROTAC activity at SPOP/BRD2 in human HT-29 cells assessed as induction of BRD2 degradation by measuring fold change at 0.625 uM incubated for 24 hrs by Western blot analysis (reference value: 1.00). Format: cell-based.
The target in experiment [10] is T4, Speckle-type POZ protein-Bromodomain-containing protein 2 (Homo sapiens). The experiment is described as follows: PROTAC activity at SPOP/BRD2 in human HT-29 cells assessed as induction of BRD2 degradation by measuring fold change at 10 uM incubated for 24 hrs by Western blot analysis (reference value: 1.00). Format: cell-based.
The target of experiment [11] is T1, Speckle-type POZ protein-Bromodomain-containing protein 4. The experiment is described as follows: PROTAC activity at SPOP/BRD4-S in human HT-29 cells assessed as induction of BRD4 short isoform degradation at 5 uM measured after 16 to 72 hrs by Western blotting analysis. Format: cell-based. To be noted: time 16-72 hrs.
Experiment [12] has the same target. The experiment is described as follows: PROTAC activity at SPOP/BRD4-S in human HT-29 cells assessed as induction of BRD4 short isoform degradation at 5 uM by Western blotting analysis. The class given is cell-based. To be noted: time 2-72 hrs.
For experiment [13], the system named is HT-29. The experiment is described as follows: Effect on BRD4 long isoform mRNA level in human HT-29 cells at 1 to 10 uM incubated for 24 hrs by RT-qPCR analysis. The class given is functional, cell-based. To be noted: dose 1-10 µM.
Experiment [14] addresses T1, Speckle-type POZ protein-Bromodomain-containing protein 4. The experiment is described as follows: PROTAC activity at SPOP/BRD4-L in human MDA-MB-231 cells assessed as induction of BRD4 long isoform degradation at 0.1 to 5 uM incubated for 24 hrs by Western blotting analysis. To be noted: dose 0.1-5 µM. The class given is cell-based.
The target of experiment [15] is T3, Speckle-type POZ protein-Bromodomain-containing protein 3 (Homo sapiens). The experiment is described as follows: PROTAC activity at SPOP/BRD3 in human MDA-MB-231 cells assessed as induction of BRD3 degradation at 0.1 to 5 uM incubated for 24 hrs by Western blot analysis. The class given is cell-based. To be noted: dose 0.1-5 µM.
Experiment [16] deals with T4, Speckle-type POZ protein-Bromodomain-containing protein 2 (Homo sapiens). The experiment is described as follows: PROTAC activity at SPOP/BRD2 in human MDA-MB-231 cells assessed as induction of BRD2 degradation at 0.1 to 5 uM incubated for 24 hrs by Western blot analysis. The class given is cell-based. To be noted: dose 0.1-5 µM.
Experiment [17] concerns HT-29. The experiment is described as follows: Antiproliferative activity against human HT-29 cells assessed as cell growth inhibition incubated for 3 days by WST-8 reagent based assay. The class given is functional.

T4 sequence (O43791 whole entry, looked up): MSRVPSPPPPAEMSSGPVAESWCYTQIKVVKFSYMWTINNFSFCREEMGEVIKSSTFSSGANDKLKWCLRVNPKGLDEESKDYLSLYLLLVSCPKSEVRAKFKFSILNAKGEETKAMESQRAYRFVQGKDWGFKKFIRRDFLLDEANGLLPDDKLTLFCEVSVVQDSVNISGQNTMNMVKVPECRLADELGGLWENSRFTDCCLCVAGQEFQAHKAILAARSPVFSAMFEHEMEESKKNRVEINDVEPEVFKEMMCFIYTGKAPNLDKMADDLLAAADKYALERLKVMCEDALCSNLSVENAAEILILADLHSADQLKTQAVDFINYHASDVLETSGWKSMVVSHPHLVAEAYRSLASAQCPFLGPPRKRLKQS
T4 sequence (P25440 whole entry, looked up): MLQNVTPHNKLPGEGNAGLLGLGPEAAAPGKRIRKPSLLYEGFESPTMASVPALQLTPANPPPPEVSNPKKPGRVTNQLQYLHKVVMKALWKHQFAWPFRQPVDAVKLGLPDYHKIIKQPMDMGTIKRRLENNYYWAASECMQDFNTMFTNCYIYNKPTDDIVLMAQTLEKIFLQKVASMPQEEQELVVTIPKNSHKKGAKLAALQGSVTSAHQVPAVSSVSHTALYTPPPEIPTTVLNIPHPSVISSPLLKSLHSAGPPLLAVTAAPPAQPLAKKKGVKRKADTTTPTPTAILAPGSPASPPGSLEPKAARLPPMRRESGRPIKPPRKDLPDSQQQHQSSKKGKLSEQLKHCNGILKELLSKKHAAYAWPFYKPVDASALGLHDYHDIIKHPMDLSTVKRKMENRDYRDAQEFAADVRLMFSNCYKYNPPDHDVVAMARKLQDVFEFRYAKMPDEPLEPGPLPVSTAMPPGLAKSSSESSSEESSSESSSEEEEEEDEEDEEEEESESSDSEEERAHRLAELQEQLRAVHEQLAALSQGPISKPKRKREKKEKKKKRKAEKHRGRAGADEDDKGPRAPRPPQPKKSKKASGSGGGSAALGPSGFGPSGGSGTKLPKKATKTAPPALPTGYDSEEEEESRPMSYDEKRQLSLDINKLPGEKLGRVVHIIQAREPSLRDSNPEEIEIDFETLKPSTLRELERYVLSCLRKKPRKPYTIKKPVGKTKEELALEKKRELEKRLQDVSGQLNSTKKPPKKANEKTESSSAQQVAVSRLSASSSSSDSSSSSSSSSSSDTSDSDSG
T1 sequence (O43791 whole entry, looked up, other chains not shown, canonical isoform): as the sequence (O43791 whole entry, looked up) above
T3 sequence (O43791 whole entry, looked up): as above
T3 sequence (Q15059 whole entry, looked up): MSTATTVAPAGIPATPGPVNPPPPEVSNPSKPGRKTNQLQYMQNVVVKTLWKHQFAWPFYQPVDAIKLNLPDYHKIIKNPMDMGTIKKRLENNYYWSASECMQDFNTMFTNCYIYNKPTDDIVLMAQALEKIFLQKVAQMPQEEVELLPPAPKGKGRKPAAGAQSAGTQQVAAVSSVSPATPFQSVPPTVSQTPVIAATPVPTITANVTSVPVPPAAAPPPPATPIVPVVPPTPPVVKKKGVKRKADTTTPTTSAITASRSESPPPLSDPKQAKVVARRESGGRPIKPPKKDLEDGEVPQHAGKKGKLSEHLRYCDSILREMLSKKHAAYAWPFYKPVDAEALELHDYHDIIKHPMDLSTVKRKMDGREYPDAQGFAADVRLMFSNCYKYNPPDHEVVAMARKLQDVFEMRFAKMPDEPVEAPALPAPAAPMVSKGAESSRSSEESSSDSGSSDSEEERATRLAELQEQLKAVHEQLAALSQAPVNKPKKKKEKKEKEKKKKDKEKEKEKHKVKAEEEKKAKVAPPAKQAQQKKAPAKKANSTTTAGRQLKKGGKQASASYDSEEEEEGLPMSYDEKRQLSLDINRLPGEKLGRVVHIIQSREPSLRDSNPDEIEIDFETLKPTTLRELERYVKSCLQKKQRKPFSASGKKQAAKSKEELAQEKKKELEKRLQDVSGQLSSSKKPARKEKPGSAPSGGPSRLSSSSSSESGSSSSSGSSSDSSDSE

`COc1cc2c(NC3CCN(CCCC(=O)NCCCCCCCCCCNC(=O)C[C@@H]4N=C(c5ccc(Cl)cc5)c5c(sc(C)c5C)-n5c(C)nnc54)CC3)cc(N3CCOCC3)nc2cc1OCCCN1CCCC1`: the result in [1], in [11], in experiment [14], in [15] and in experiment [16] was Active. In [2], the Kd turned out to be 0.306 µM. The Activity in [3] is 50%; in experiment [12], “Time-dependent-effect”; with HT-29 [17] (time 3.0 day) it was “Dose-dependent-effect”. For the same compound, the fold change (FC) in experiment [4] was 1.2; in experiment [5] it was 0.8; in experiment [6], 0.4; in experiment [7] it was 1; in experiment [8] it was 0.6; in experiment [9], 1.1. Further, the fold change (FC) in [10] turned out to be 0.7. For the same compound, in the experiment on HT-29 [13], the outcome was inactive. Moreover, in the experiment on HT-29 [17] (HT-29, 72 h, time 3 day), the GI50 was found to be 4.5 µM.
